Source: ChEMBL document CHEMBL1201861, “Genomics of Drug Sensitity in Cancer screening data, Wellcome Trust Sanger Institute”

Experiments:
Assay type in all cases: functional, cell-based
RL95-2 = assay: cells; conditions: Homo sapiens;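 also: RL95-2 growth inhibition determined through a cell viability readout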
Description: SANGER: Inhibition of human RL95-2 cell growth in a cell viability assay.

Caov-4 = assay: cells; conditions: Homo sapiens
Description: SANGER: Inhibition of human Caov-4 cell growth in a cell viability assay.

NCI-H2227 = assay: cells; conditions: Homo sapiens;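 also: growth inhibition of the human cell line, read out with a cell viability assay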
Description: SANGER: Inhibition of human NCI-H2227 cell growth in a cell viability assay.

CCF-STTG1 = assay: cells; conditions: Homo sapiens;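 also: growth inhibition of human CCF-STTG1 cells, determined with a cell viability read-out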
Description: SANGER: Inhibition of human CCF-STTG1 cell growth in a cell viability assay.

NCI-H1734 = assay: cells; conditions: Homo sapiens;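 also: growth inhibition of human NCI-H1734 cells, read out with a cell viability assay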
Description: SANGER: Inhibition of human NCI-H1734 cell growth in a cell viability assay.

MES-SA = assay: cells; conditions: Homo sapiens;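 also: growth inhibition of human MES-SA cells, read out with a cell viability assay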
Description: SANGER: Inhibition of human MES-SA cell growth in a cell viability assay.

MFE-296 = assay: SANGER: Inhibition of human MFE-296 cell growth in a cell viability assay.
SNG-M = assay: cells; conditions: Homo sapiens
Description: SANGER: Inhibition of human SNG-M cell growth in a cell viability assay.

PLC-PRF-5 = assay: cells; conditions: Homo sapiens;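 also: growth inhibition of human PLC-PRF-5 cells, read out with a viability assay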
Description: SANGER: Inhibition of human PLC-PRF-5 cell growth in a cell viability assay.

HCC1143 = assay: cells; conditions: Homo sapiens;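 also: growth inhibition of human HCC1143 cells, read out with a cell viability assay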
Description: SANGER: Inhibition of human HCC1143 cell growth in a cell viability assay.

EFE-184 = assay: cells; conditions: Homo sapiens
Description: SANGER: Inhibition of human EFE-184 cell growth in a cell viability assay.

Calu-1 = assay: SANGER: Inhibition of human Calu-1 cell growth in a cell viability assay.
DMS-53 = assay: cells; conditions: Homo sapiens;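 also: cell viability assay measuring growth inhibition of human DMS-53 cells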
Description: SANGER: Inhibition of human DMS-53 cell growth in a cell viability assay.

MDA-MB-468 = assay: cells; conditions: Homo sapiens
Description: SANGER: Inhibition of human MDA-MB-468 cell growth in a cell viability assay.

RT-4 = assay: SANGER: Inhibition of human RT4 cell growth in a cell viability assay.
DV-90 = assay: cells; conditions: Homo sapiens;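 also: Read-out is a viability assay, with IC50 reflecting the drop in DV-90 cell growth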
Description: SANGER: Inhibition of human DV-90 cell growth in a cell viability assay.

ECC12 = assay: cells; conditions: Homo sapiens
Description: SANGER: Inhibition of human ECC12 cell growth in a cell viability assay.

EW-7 = assay: SANGER: Inhibition of human EW-7 cell growth in a cell viability assay.
Caov-3 cell line = assay: cells; conditions: Homo sapiens;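 also: cell growth inhibition read out by a viability assay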
Description: SANGER: Inhibition of human Caov-3 cell growth in a cell viability assay.

NCI-H838 = assay: cells; conditions: Homo sapiens;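 also: growth inhibition of human NCI-H838 cells, read out by a cell viability assay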
Description: SANGER: Inhibition of human NCI-H838 cell growth in a cell viability assay.

TT = assay: cells; conditions: Homo sapiens
Description: SANGER: Inhibition of human TT cell growth in a cell viability assay.

SNU-475 = assay: cells; conditions: Homo sapiens
Description: SANGER: Inhibition of human SNU-475 cell growth in a cell viability assay.

IPC-298 = assay: SANGER: Inhibition of human IPC-298 cell growth in a cell viability assay.
COLO 205 = assay: cells; conditions: Homo sapiens
Description: SANGER: Inhibition of human COLO-205 cell growth in a cell viability assay.

SK-CO-1 = assay: cells; conditions: Homo sapiens;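 also: growth inhibition of SK-CO-1 cells, determined by a viability readout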
Description: SANGER: Inhibition of human SK-CO-1 cell growth in a cell viability assay.

C-4-II = assay: SANGER: Inhibition of human C-4-II cell growth in a cell viability assay.

Fc1cc(-c2cc[nH]/c(=N/c3ccc(-n4cnc(N5CCOCC5)n4)cc3)n2)cc(N2CCOCC2)c1
IC50 (RL95-2): 660 nM | IC50 (Caov-4): > 5120 nM | IC50 (NCI-H2227): > 5120 nM | IC50 (CCF-STTG1): 624 nM | IC50 (NCI-H1734): 582 nM | IC50 (MES-SA): 717 nM | IC50 (MFE-296): 174 nM | IC50 (SNG-M): 642 nM | IC50 (PLC-PRF-5): 3950 nM | IC50 (HCC1143): 954 nM | IC50 (EFE-184): 3040 nM | IC50 (Calu-1): 3120 nM | IC50 (DMS-53): 1080 nM | IC50 (MDA-MB-468): 944 nM | IC50 (RT-4): 3560 nM | IC50 (DV-90): 958 nM | IC50 (ECC12): 324 nM | IC50 (EW-7): 562 nM | IC50 (Caov-3 cell line): > 5120 nM | IC50 (NCI-H838): 416 nM | IC50 (TT): 3550 nM | IC50 (SNU-475): > 5120 nM | IC50 (IPC-298): 854 nM | IC50 (COLO 205): 152 nM | IC50 (SK-CO-1): 912 nM | IC50 (C-4-II): 405 nM
